Tested on: normal human melanocytes (NHM)
Assay: Measurement of reactive oxygen species (ROS) generated by an H2O2 stress in cultured normal human melanocytes
Format: cell-based
Settings: NHM pretreated 12 h/18 h at 37° C. with compound; 250 μM H2O2; fluorescence after 15 minutes; FIG. 1
Description: 1-A-1. Protocol for Measuring the Reactive Oxygen Species (ROS) Generated by an H2O2 Stress in Cultured Normal Human Melanocytes (NHM): The normal human melanocytes (NHMs) were inoculated at DO at the density of 4×10^4 cells/cm^2. At D1, the culture medium was replaced with the 10 μM solution of 6-carboxy-2',7'-dichlorodihydrofluorescein diacetate, di[acetoxymethyl ester] in PBS (H2DCFDA, C2938, Molecular Probes). After 20 minutes, the H2DCFDA solution was replaced with the culture medium. The NHMs were left for 30 minutes before adding the H2O2 solution (250 μM). The fluorescence was measured after 15 minutes in a fluoroscan (excitation: 485 nm, emission: 538 nm). The compounds studied were used depending on their properties (concentration, preincubation time). N-Acetylcysteine ([…]-Sigma) was used as a reference molecule. The melanocytes were pretreated, 12 h/18 h at 37° C., with the compound studied in the culture medium, before being brought into contact for 20 minutes with H2DCFDA (10 μM in PBS). […] The fluorescence was measured after 15 minutes in a fluoroscan (excitation: 485 nm, emission: 538 nm). The results represent the crude fluorescence data, from which the autofluorescence values of “blank” cells, expressed in fluorescence units (fu), obtained during a representative experiment, have been deducted.

For `CCOc1ccc2c(c1)C(C)=CC(C)(C)N2` [ethoxyquine, 6-ethoxy-2,2,4-trimethyl-1H-quinoline], the “ROS induced by H2O2 (H2DCFDA fluorescence)” value was “decrease of the reactive oxygen species”.

Source: patent US8969407B2, “Administration of coumarin, butylated hydroxyanisole and ethoxyquine for the treatment of canities” (L'Oreal, priority 2006, dated 2015)
